In article PMC10716780, “The multistep oxidation of cholesterol to pregnenolone by human cytochrome P450 11A1 is highly processive” (The Journal of Biological Chemistry, 2023):
Several values for one entry are separate records, joined by “and”; a condition that tells them apart may be missing. Equal entries are not always repeated.

How the values were obtained:
[1] = molecular target: T1, human P450 11A1 (Homo sapiens, UniProt P05108); assay: Fluorescence titration of Alexa 488-Adx with P450 11A1 ± cholesterol; format: binding; set-up: M A S T R S P R P F N E I P S P G D N; Met-Ala (N-terminal start residues in place of the transit peptide and Ile40) (N); made in house; host or cells: E. coli (P450 11A1 in C41(DE3); Adx and AdR in E. coli)
T1 sequence (P05108 41-521 limits assumed): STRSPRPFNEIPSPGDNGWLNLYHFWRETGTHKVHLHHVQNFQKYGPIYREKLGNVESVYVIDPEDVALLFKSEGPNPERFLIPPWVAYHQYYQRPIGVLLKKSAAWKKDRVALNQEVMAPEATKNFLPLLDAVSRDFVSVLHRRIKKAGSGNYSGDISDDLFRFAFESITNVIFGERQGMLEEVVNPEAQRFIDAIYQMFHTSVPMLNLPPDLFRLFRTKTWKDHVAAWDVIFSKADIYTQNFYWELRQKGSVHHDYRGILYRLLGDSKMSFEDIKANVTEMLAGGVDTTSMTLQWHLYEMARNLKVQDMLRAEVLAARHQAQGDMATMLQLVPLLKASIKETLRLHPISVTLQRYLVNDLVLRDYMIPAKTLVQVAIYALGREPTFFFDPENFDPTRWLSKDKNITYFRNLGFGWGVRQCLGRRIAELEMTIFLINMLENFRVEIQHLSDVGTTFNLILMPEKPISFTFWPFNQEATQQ
T1 sequence (P00257 59-186 partner): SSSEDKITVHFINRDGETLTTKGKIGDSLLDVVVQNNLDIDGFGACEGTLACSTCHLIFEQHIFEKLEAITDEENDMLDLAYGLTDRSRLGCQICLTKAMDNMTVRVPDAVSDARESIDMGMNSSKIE
Experimental: Because Adx has been reported to stimulate the binding of P450 11A1 to its substrates ([12], [44]), we examined whether the binding of detergent-free P450 11A1 to Adx is enhanced by cholesterol, utilizing our fluorescently-labeled Adx construct (Alexa 488-Adx) ([45]). A 1:1 M complex of P450 11A1 and cholesterol was gradually titrated into a solution containing Alexa 488-Adx (50 nM), and the quenching of Adx fluorescence was monitored over the course of the reaction.
Figure 7 Effect of cholesterol on P450 11A1 binding to Adx.A, titration of P450 11A1 (0–400 nM) into Alexa 488-Adx (50 nM) gradually quenched the fluorophore and yielded a decrease in fluorescence output (between 500 and 600 nm). Spectra were collected after each addition of P450. B, normalized fluorescence (F/F0) of titrations of P450 11A1 with (▪, red) and without (•, black) cholesterol (equimolar). A 1:1 M complex of P450 and cholesterol was used as titrant, where indicated. […]
A previously described Alexa Fluor 488-labeled Adx construct and experimental protocol were used ([45]) to perform the fluorescence titration of P450 11A1 with Adx. […] P450 11A1 was gradually titrated (0–0.4 μM) into the cuvette (to a maximum of 2% (v/v)), and spectra were recorded using an OLIS DM-45 spectrofluorometer (1.24 mm slit width) with fluorophore excitation at 493 nm and scanning emission spectra from 500 to 600 nm. […]

[2] = molecular target: T1, human P450 11A1; assay: Kinetic isotope effect assay, disappearance of d0- and d3-cholesterol under single-turnover conditions; format: biochemical; set-up: M A S T R S P R P F N E I P S P G D N; Met-Ala (N-terminal start residues in place of the transit peptide and Ile40) (N); made in house; host or cells: E. coli (P450 11A1 in C41(DE3); Adx and AdR in E. coli); conditions: 5 μM P450, 5 μM sterol, exponential decay fit
Experimental: P450 11A1 incubations were performed under (low Adx) single-turnover conditions (5 μM P450, 5 μM cholesterol; see Experimental procedures) with d0- (authentic, unlabeled) and d3-cholesterol, and the disappearance of each was monitored by LC-atmospheric pressure chemical ionization-MS (m/z 369.3516 and 372.3705, respectively). In theory, if C-H bond breaking were rate-limiting in the initial hydroxylation then the rate of d3-cholesterol consumption would be slower relative to the d0 compound due to the increased strength of a C-D bond.
The kinetic isotope experiment was designed similarly to the benchtop experiment described above, but with some modifications. P450 11A1 (5 μM) was reconstituted with the redox partners AdR (10 μM) and Adx (5 μM) on ice (10 min) prior to dilution in potassium Hepes (50 mM, pH 7.4) and H2O and addition of d3-cholesterol substrate (5 μM). The mixture was preincubated (5 min) prior to initiation with NADPH (2.5 mM, from 25 mM in potassium Hepes (50 mM, pH 7.4)) thus bringing all components to their desired final concentrations. After completing the desired incubation time, an aliquot (500 μl) was removed from the incubation and added to vials containing CH2Cl2 (5 ml) and the vials were mixed with a vortex device and placed on ice. The quenched reactions were centrifuged (10^3g, 5 min, 23 °C) to separate layers, and the organic (bottom) layers were removed (4 ml) and transferred to fresh glass vials. The extraction process was repeated and the two extracts (2 × 4 ml) from each sample were combined to maximize product recovery. Samples (8 ml) were brought to dryness under a stream of nitrogen, and the dried residues were dissolved in CH3OH (25 μl) and transferred to autosampler vials for analysis.
Samples (held at 4 °C) were injected (10 μl) using a Waters Acquity UPLC system on a Acquity BEH octadecylsilane (C18) 2.1 mm × 50 mm (1.7 μm) UPLC column (held at 25 °C) with a flow rate of 0.5 ml min^−1 using an isocratic mobile phase of CH3CN (only). The column eluate was subjected to atmospheric pressure chemical ionization and analyzed using a Thermo Fisher Scientific LTQ XL Orbitrap mass spectrometer instrument operating in positive mode, scanning from m/z 100 to 500, with a resolution setting of 120,000. Data were processed using Xcalibur QualBrowser (Thermo Fisher Scientific) software (version 2.0.7; https://www.thermofishcer.com/order/catalog/product/OPTON).

CC(C)CCC[C@@H](C)[C@H]1CC[C@H]2[C@@H]3CC=C4C[C@@H](O)CC[C@]4(C)[C@H]3CC[C@]12C [Cholesterol]
stimulation of binding of P450 11A1 to Adx ([1]; equimolar cholesterol): ~5 fold and ~4.5 fold | change in Gibbs free energy of Adx binding ([1]; from the 4.5-fold change in Kd): < 1 kcal/mol | rate of disappearance [2]: 0.035 s⁻¹
